The results in this text go back to BindingDB's records for PubMed 2530338 (Medical University of South Carolina, 1989).

The test concerns the target T1, Thromboxane A2 receptor (Homo sapiens, UniProt P21731).
T1 sequence (P21731 whole entry): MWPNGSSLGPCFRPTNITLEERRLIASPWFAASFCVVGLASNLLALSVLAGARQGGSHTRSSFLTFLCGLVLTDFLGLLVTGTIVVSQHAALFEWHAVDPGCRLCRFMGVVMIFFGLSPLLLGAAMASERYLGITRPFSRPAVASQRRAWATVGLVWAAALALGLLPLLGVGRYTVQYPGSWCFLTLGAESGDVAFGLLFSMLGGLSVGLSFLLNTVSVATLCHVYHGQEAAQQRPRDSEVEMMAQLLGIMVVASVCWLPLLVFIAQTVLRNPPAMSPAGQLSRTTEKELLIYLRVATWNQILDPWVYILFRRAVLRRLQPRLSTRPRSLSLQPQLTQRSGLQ

A word on the Ki: it is the dissociation constant of the complex between target and ligand, obtained from inhibition or displacement. High values mean weaker binding, low ones tighter binding. Compound `CCCCC[C@H](O)CC[C@H]1c2cc([nH]n2)[C@@H]1CC=CCCCC(=O)O` [9,11-AzoPGH2] had a Ki of 0.041 µM. In the case of `O=C(O)C[C@@H]1CCCc2c1n(Cc1ccc(Cl)cc1)c1ccc(F)cc21` [CAS_113243-00-8] it was 0.424 µM; in that of `CCCCC[C@H](O)/C=C/C1C[C@H]2C[C@H](S2)[C@@H]1C/C=C\CCCC(=O)O` (some centres undefined) [STA2], 0.017 µM; in that of `CCCCC[C@H](O)/C=C/C1[C@@H](C/C=C\CCCC(=O)O)[C@H]2CO[C@@H]1C2` (some centres undefined) [U46619], 0.062 µM.
